Results published in US11713338B2, “Cyclic peptides multimers targeting α-4-β-7 integrin” (priority 2016, dated 2023).

Assays:
[1] = target: T1, recombinant integrin α4β7 (Homo sapiens, UniProt P13612+P26010, DEL724-798); assay: Integrin α4β7—MAdCAM-1 ELISA competition assay; type: binding; settings: read-out: ELISA α4β7 Assay IC50
T1 construct: purchased R&D Systems 5397-A3-050
T1 sequence (P13612 34-970 limits assumed): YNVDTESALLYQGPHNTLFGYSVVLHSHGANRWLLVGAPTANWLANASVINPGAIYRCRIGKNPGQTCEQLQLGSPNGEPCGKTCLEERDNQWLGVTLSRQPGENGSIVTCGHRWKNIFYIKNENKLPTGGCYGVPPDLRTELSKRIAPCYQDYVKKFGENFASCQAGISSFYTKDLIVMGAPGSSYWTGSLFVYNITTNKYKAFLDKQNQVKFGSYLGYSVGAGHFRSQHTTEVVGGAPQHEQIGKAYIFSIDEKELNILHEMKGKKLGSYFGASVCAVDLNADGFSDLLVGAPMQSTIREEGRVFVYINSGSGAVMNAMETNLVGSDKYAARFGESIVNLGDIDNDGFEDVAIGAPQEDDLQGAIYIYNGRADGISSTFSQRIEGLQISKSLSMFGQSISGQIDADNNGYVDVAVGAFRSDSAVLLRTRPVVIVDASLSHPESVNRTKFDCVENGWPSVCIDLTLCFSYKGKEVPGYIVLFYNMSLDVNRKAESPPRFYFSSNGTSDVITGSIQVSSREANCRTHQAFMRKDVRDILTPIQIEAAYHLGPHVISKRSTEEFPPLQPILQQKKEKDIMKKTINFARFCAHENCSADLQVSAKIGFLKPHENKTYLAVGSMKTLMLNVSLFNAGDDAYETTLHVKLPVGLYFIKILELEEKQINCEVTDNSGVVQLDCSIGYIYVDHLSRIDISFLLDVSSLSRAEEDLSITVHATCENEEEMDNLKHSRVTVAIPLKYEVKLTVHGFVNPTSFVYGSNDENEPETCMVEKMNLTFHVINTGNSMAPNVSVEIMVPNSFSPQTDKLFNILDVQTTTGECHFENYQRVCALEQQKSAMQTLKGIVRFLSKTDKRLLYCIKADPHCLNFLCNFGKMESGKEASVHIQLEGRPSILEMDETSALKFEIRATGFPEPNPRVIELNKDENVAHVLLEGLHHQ
T1 sequence (P26010 20-723 limits assumed): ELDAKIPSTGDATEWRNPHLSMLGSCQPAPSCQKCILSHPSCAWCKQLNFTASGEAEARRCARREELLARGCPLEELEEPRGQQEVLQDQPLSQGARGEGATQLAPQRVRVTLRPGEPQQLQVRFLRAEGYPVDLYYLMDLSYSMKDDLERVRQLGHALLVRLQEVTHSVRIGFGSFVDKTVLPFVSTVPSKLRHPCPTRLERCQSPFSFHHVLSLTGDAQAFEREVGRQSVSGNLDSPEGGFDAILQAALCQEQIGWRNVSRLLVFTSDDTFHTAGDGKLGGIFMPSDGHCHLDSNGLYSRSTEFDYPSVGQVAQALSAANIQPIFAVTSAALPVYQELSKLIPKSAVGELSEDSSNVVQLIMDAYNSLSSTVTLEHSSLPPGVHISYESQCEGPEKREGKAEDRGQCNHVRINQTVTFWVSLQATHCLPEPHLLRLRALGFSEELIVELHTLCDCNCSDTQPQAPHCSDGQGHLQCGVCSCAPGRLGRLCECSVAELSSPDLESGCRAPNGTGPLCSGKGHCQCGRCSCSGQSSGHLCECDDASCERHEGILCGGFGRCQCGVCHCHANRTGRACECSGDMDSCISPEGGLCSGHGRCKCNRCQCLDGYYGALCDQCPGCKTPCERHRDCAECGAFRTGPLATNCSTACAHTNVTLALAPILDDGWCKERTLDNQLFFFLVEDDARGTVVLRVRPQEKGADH
Procedure: Integrin α4β7—MAdCAM-1 ELISA Competition Assay
The plate was incubated at 40C overnight. […] The plate was then incubated for 1 hour at room temperature. The plate was washed three times with wash buffer (50 mM Tris, 100 mM NaCl, 1 mM MnCl2, 0.05% Tween). To each well, 50 μl of compound diluted in assay buffer was added by transfer from a compound serial dilution plate. […] The plate was incubated at room temperature with shaking (300 rpm) for 2 hours to reach binding equilibrium. […] The plate was incubated at room temperature for 1 hour under agitation.

[2] = target: T2, recombinant integrin α4β1 (Homo sapiens, UniProt P05556+P13612); assay: Integrin α4β1—VCAM-1 competition ELISA; type: binding; settings: for IC50: read-out: ELISA α4β1 Assay IC50; for ELISA Assay Ratio β1/β7: ratio of ELISA IC50s, α4β1 over α4β7
T2 construct: purchased R&D Systems 5397-A3-050
T2 sequence (P05556 21-728 limits assumed, one chain of several): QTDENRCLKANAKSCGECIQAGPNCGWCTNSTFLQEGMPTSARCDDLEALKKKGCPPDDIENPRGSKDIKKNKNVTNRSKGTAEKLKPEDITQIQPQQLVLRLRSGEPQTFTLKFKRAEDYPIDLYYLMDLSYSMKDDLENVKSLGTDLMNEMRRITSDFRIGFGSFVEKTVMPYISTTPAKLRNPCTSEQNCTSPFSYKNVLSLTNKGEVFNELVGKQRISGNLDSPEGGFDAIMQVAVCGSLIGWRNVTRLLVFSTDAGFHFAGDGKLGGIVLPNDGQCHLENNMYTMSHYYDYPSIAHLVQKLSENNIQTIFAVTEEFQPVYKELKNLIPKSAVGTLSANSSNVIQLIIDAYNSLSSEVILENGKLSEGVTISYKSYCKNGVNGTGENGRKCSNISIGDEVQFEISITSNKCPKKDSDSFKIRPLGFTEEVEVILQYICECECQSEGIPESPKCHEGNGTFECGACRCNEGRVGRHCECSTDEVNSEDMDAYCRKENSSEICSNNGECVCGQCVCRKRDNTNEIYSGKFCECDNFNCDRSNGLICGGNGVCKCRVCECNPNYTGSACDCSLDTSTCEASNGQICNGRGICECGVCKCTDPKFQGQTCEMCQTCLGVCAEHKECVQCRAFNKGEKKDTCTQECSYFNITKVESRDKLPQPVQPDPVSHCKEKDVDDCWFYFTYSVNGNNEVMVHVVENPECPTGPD
How it was run: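 Compound dilutions added to coated plate and shaken at room temperature for 2 h (300 rpm) to binding equilibrium. Wash buffer: 50 mM Tris, 100 mM NaCl, 1 mM MnCl2, 0.05% Tween. Bound Fc-tagged ligand detected with anti-human IgG Fc-HRP, 1 h at room temperature.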

CC(C)C[C@@H]1NC(=O)c2ccc(-c3ccc(N4CCN(Cc5cc(CN6CCN(c7ccc(-c8ccc9cc8CNC(=O)[C@@H]8CCCN8[C@H](C(=O)NC(C)(C)C)[C@H](C)NC(=O)[C@H]([C@@H](C)O)NC(=O)[C@H](CC(=O)O)NC(=O)[C@H](CC(C)C)NC9=O)cc7)CC6)cc(CN6CCN(c7ccc(-c8ccc9cc8CNC(=O)[C@@H]8CCCN8[C@H](C(=O)NC(C)(C)C)[C@H](C)NC(=O)[C@H]([C@@H](C)O)NC(=O)[C@H](CC(=O)O)NC(=O)[C@H](CC(C)C)NC9=O)cc7)CC6)c5)CC4)cc3)c(c2)CNC(=O)[C@@H]2CCCN2[C@H](C(=O)NC(C)(C)C)[C@H](C)NC(=O)[C@H]([C@@H](C)O)NC(=O)[C@H](CC(=O)O)NC1=O [Compound 518]
IC50 [1]: 36 nM
IC50 [2]: 8.7 nM

CC(C)C[C@@H]1NC(=O)c2ccc(-c3ccc(N4CCN(Cc5cccc(CN6CCN(c7ccc(-c8ccc9cc8CNC(=O)[C@@H]8CCCN8[C@H](C(=O)NC(C)(C)C)[C@H](C)NC(=O)[C@H]([C@@H](C)O)NC(=O)[C@H](CC(=O)O)NC(=O)[C@H](CC(C)C)NC9=O)cc7)CC6)c5)CC4)cc3)c(c2)CNC(=O)[C@@H]2CCCN2[C@H](C(=O)NC(C)(C)C)[C@H](C)NC(=O)[C@H]([C@@H](C)O)NC(=O)[C@H](CC(=O)O)NC1=O [Compound 499]
IC50 [1]: 17 nM
ELISA Assay Ratio β1/β7 [2]: 0.2
IC50 [2]: 3.1 nM

CC(C)C[C@@H]1NC(=O)c2ccc(-c3ccc(N4CCN(C(=O)C[C@@H](N)C(=O)N5CCN(c6ccc(-c7ccc8cc7CNC(=O)[C@@H]7CCCN7[C@H](C(=O)NC(C)(C)C)[C@H](C)NC(=O)[C@H]([C@@H](C)O)NC(=O)[C@H](CC(=O)O)NC(=O)[C@H](CC(C)C)NC8=O)cc6)CC5)CC4)cc3)c(c2)CNC(=O)[C@@H]2CCCN2[C@H](C(=O)NC(C)(C)C)[C@H](C)NC(=O)[C@H]([C@@H](C)O)NC(=O)[C@H](CC(=O)O)NC1=O [Compound 493]
IC50 [1]: 12 nM
ELISA Assay Ratio β1/β7 [2]: 0.3
IC50 [2]: 3.5 nM

CC(C)C[C@@H]1NC(=O)c2ccc(-c3ccc(N4CCN(C(=O)C56CC7CC(C5)CC(C(=O)N5CCN(c8ccc(-c9ccc%10cc9CNC(=O)[C@@H]9CCCN9[C@H](C(=O)NC(C)(C)C)[C@H](C)NC(=O)[C@H]([C@@H](C)O)NC(=O)[C@H](CC(=O)O)NC(=O)[C@H](CC(C)C)NC%10=O)cc8)CC5)(C7)C6)CC4)cc3)c(c2)CNC(=O)[C@@H]2CCCN2[C@H](C(=O)NC(C)(C)C)[C@H](C)NC(=O)[C@H]([C@@H](C)O)NC(=O)[C@H](CC(=O)O)NC1=O [Compound 460]
IC50 [1]: 14 nM
ELISA Assay Ratio β1/β7 [2]: 0.1
IC50 [2]: 1 nM

CC(C)C[C@@H]1NC(=O)c2ccc(-c3ccc(N4CCN(C(=O)C5(C(=O)N6CCN(c7ccc(-c8ccc9cc8CNC(=O)[C@@H]8CCCN8[C@H](C(=O)NC(C)(C)C)[C@H](C)NC(=O)[C@H]([C@@H](C)O)NC(=O)[C@H](CC(=O)O)NC(=O)[C@H](CC(C)C)NC9=O)cc7)CC6)Cc6ccccc6C5)CC4)cc3)c(c2)CNC(=O)[C@@H]2CCCN2[C@H](C(=O)NC(C)(C)C)[C@H](C)NC(=O)[C@H]([C@@H](C)O)NC(=O)[C@H](CC(=O)O)NC1=O [Compound 461]
IC50 [1]: 18 nM
ELISA Assay Ratio β1/β7 [2]: 0.4
IC50 [2]: 7.9 nM

CC(C)C[C@@H]1NC(=O)c2ccc(-c3ccc(N4CCN(C(=O)CCOCCOCCNC(=O)CCCCCC(=O)NCCOCCOCCC(=O)N5CCN(c6ccc(-c7ccc8cc7CNC(=O)[C@@H]7CCCN7[C@H](C(=O)NC(C)(C)C)[C@H](C)NC(=O)[C@H]([C@@H](C)O)NC(=O)[C@H](CC(=O)O)NC(=O)[C@H](CC(C)C)NC8=O)cc6)CC5)CC4)cc3)c(c2)CNC(=O)[C@@H]2CCCN2[C@H](C(=O)NC(C)(C)C)[C@H](C)NC(=O)[C@H]([C@@H](C)O)NC(=O)[C@H](CC(=O)O)NC1=O [Compound 505]
IC50 [1]: 19 nM
ELISA Assay Ratio β1/β7 [2]: 0.3
IC50 [2]: 6.6 nM

CC(C)C[C@@H]1NC(=O)c2ccc(-c3ccc(N4CCN(C(=O)CCOCCOCCOCCOCCOCCOCCOCCOCCOCCOCCC(=O)N5CCN(c6ccc(-c7ccc8cc7CNC(=O)[C@@H]7CCCN7[C@H](C(=O)NC(C)(C)C)[C@H](C)NC(=O)[C@H]([C@@H](C)O)NC(=O)[C@H](CC(=O)O)NC(=O)[C@H](CC(C)C)NC8=O)cc6)CC5)CC4)cc3)c(c2)CNC(=O)[C@@H]2CCCN2[C@H](C(=O)NC(C)(C)C)[C@H](C)NC(=O)[C@H]([C@@H](C)O)NC(=O)[C@H](CC(=O)O)NC1=O [Compound 511]
IC50 [1]: 11 nM
ELISA Assay Ratio β1/β7 [2]: 0.6
IC50 [2]: 7.2 nM

CC(C)C[C@@H]1NC(=O)C[C@H](CCCCN)N(C)C(=O)[C@H](CCCCNC(=O)CCCCCCCCC(=O)NCCCC[C@@H]2NC(=O)[C@@H]3CCCN3[C@H](C(=O)NC(C)(C)C)[C@H](C)NC(=O)[C@H]([C@@H](C)O)NC(=O)[C@H](CC(=O)O)NC(=O)[C@H](CC(C)C)NC(=O)C[C@H](CCCCN)N(C)C2=O)NC(=O)[C@@H]2CCCN2[C@H](C(=O)NC(C)(C)C)[C@H](C)NC(=O)[C@H]([C@@H](C)O)NC(=O)[C@H](CC(=O)O)NC1=O [Compound 530]
IC50 [1]: 5.3 nM
ELISA Assay Ratio β1/β7 [2]: 1.0
IC50 [2]: 5.1 nM

CC(C)C[C@@H]1NC(=O)c2ccc(-c3ccc(N4CCN(C(=O)c5ccc(-c6ccc(C(=O)N7CCN(c8ccc(-c9ccc%10cc9CNC(=O)[C@@H]9CCCN9[C@H](C(=O)NC(C)(C)C)[C@H](C)NC(=O)[C@H]([C@@H](C)O)NC(=O)[C@H](CC(=O)O)NC(=O)[C@H](CC(C)C)NC%10=O)cc8)CC7)cc6)cc5)CC4)cc3)c(c2)CNC(=O)[C@@H]2CCCN2[C@H](C(=O)NC(C)(C)C)[C@H](C)NC(=O)[C@H]([C@@H](C)O)NC(=O)[C@H](CC(=O)O)NC1=O [Compound 474]
IC50 [1]: 19 nM
ELISA Assay Ratio β1/β7 [2]: 0.4
IC50 [2]: 7.1 nM

CC(C)C[C@@H]1NC(=O)c2ccc(-c3ccc(N4CCN(C(=O)[C@H](CCCCNC(=O)CCCCCC(=O)NCCCC[C@H](NC(=O)OCc5ccccc5)C(=O)N5CCN(c6ccc(-c7ccc8cc7CNC(=O)[C@@H]7CCCN7[C@H](C(=O)NC(C)(C)C)[C@H](C)NC(=O)[C@H]([C@@H](C)O)NC(=O)[C@H](CC(=O)O)NC(=O)[C@H](CC(C)C)NC8=O)cc6)CC5)NC(=O)OCc5ccccc5)CC4)cc3)c(c2)CNC(=O)[C@@H]2CCCN2[C@H](C(=O)NC(C)(C)C)[C@H](C)NC(=O)[C@H]([C@@H](C)O)NC(=O)[C@H](CC(=O)O)NC1=O [Compound 498]
IC50 [1]: 12 nM
IC50 [2]: 3 nM

CC(C)C[C@@H]1NC(=O)c2ccc(-c3ccc(N4CCN(C(=O)COCC(=O)N5CCN(c6ccc(-c7ccc8cc7CNC(=O)[C@@H]7CCCN7[C@H](C(=O)NC(C)(C)C)[C@H](C)NC(=O)[C@H]([C@@H](C)O)NC(=O)[C@H](CC(=O)O)NC(=O)[C@H](CC(C)C)NC8=O)cc6)CC5)CC4)cc3)c(c2)CNC(=O)[C@@H]2CCCN2[C@H](C(=O)NC(C)(C)C)[C@H](C)NC(=O)[C@H]([C@@H](C)O)NC(=O)[C@H](CC(=O)O)NC1=O [Compound 390]
IC50 [1]: 8.3 nM
ELISA Assay Ratio β1/β7 [2]: 0.2
IC50 [2]: 2 nM

CC(C)C[C@@H]1NC(=O)C[C@H](CCCCN)N(C)C(=O)[C@H](CCCCNC(=O)CCCCCC(=O)NCCCC[C@@H]2NC(=O)[C@@H]3CCCN3[C@H](C(=O)NC(C)(C)C)[C@H](C)NC(=O)[C@H]([C@@H](C)O)NC(=O)[C@H](CC(=O)O)NC(=O)[C@H](CC(C)C)NC(=O)C[C@H](CCCCN)N(C)C2=O)NC(=O)[C@@H]2CCCN2[C@H](C(=O)NC(C)(C)C)[C@H](C)NC(=O)[C@H]([C@@H](C)O)NC(=O)[C@H](CC(=O)O)NC1=O [Compound 532]
IC50 [1]: 6.1 nM
IC50 [2]: 6.9 nM
